A short description of series [1]: Experimental standard II: normal rats, five days oral treatment. In kind it is in vivo, normal male Wistar rats. The conditions noted are these: oral dose of 20 mg/kg, vs untreated normal rats. The procedure:
The hypolipaemiant properties of the CRL 40 122 have been studied in rats according to two different standard experiments: A study on normal Wistar rats (standard II). The experiment was carried out over five days on normal male Wistar rats. The animals, numbering 8 per dose of the product to be studied, were treated orally daily, the last feed taking place 3 hours before the animals were killed. Each series was divided into two groups of animals: one group killed after 3 days of experiment; the other group killed after 5 days of experiment. The results were determined by comparison with 8 normal rats subjected to the same experimental conditions and not treated.

Series [2] in a line: Overall activity from both experimental standards I and II. The class given is in vivo, Wistar rats. The conditions noted are these: for product activity: of the order of. The procedure: The hypolipaemiant properties of the CRL 40 122 have been studied in rats according to two different standard experiments:
The experiment was conducted for two weeks on Wistar rats, subjected to a daily hyperlipidic diet at the dose of about 20 g for an animal of 150 g in average.
The activity of the product studied was determined by comparison with normal control groups of rats and with groups of rats subjected to a hyperlipidic diet and not treated. For each dose of CRL 40 122 there were three groups of five animals each (control group, group only receiving the hyperlipidic diet, and treated group). The results obtained correspond to the average of each of the series. A very interesting activity of CRL 40 122 appeared at active doses of 10 mg to 50 mg/kg in rats subjected to a hyperlipidic diet (decrease from 64 to 34% of the rate of blood lipids according to dose; decrease of cholesterol from 68 to 41%).
The experiment was carried out over five days on normal male Wistar rats. The animals, numbering 8 per dose of the product to be studied, were treated orally daily, the last feed taking place 3 hours before the animals were killed. Each series was divided into two groups of animals: one group killed after 3 days of experiment; the other group killed after 5 days of experiment.
The results were determined by comparison with 8 normal rats subjected to the same experimental conditions and not treated.
Overall these tests led to the following conclusions:
1. The two experimental standards, although very different give rise to a product activity of the order of: […]

The test system of another series is mice. The series is described as follows: Acute toxicity by oral dose, mice. In kind it is in vivo. From the text:
(§1) The product is not toxic. The experiments relating to acute toxicity by oral dose for mice and rats have given evidence that there is no mortality amongst animals treated up to a dose of 5 g/kg.

The test system of the next series is rats. The series can be described thus: Acute toxicity by oral dose, rats. In kind it is in vivo. The conditions noted are these: up to a dose of 5 g/kg.
Description: as §1

Series [3] can be described thus: Human therapeutics: patients suffering from hyperlipaemia and hypercholesterolaemia. The class given is in vivo.
Series [4] is described as follows: Solubility (stated with the preparation). The class given is physicochemical.
A short description of series [5]: Hypolipidic activity in rats on hyperlipidic diet (Table IV). The class given is in vivo. Further details: Burstein Test: unit not given here. The conditions noted are these: for Total Cholesterol / Total Lipids / Burstein Test, % inhibition / Total Cholesterol, % inhibition / Total Lipids, % inhibition / Burstein Test: Table IV; for Burstein Test, % inhibition / Total Cholesterol, % inhibition / Total Lipids, % inhibition: normal = 100%, hyperlipidic = 0%. The text has this:
In Table IV below the following results have been obtained.
A -- in rats receiving a normal diet (percentage inhibition = 100%);
B -- in rats receiving a hyperlipidic diet (percentage inhibition = 0%);
C -- in rats receiving the same hyperlipidic diet B with a daily dose of 0.1 g/kg of a reference normolipidemiant LIPAVLON [ethyl-2-(p-chlorophenoxy)-2-methylpropionate; International name: CLOFIBRATE];
D -- in rats receiving the same hyperlipidic diet B with a daily dose of 0.1 g/kg of a reference normolipidemiant ATHEROLIP [aluminium salt of 2-(p-chlorophenoxy)-2-methylpropionic acid];
E -- in rats receiving the same hyperlipidic diet B with a daily dose of 0.1 g/kg of a reference normolipidemiant, LL 1558 [1,10-bis(2-hydroxyethyl-thio)decane];
F -- in rats receiving the same hyperlipidic diet B with a daily dose 0.010 g/kg, 0.025 g/kg or 0.050 g/kg of CRL 40046.
The averages of the tests effected on CRL 40 055 in three different doses and calculated comparatively to reference products corresponding to various experiments allow an activity of the product to be concluded as follows: […]

The mark [6] stands for this setting: total dose of 400 mg per day, capsules of 100 mg and 200 mg.
Where [7] appears, read: first experiment, hyperlipidic diet + product 0,1g/kg daily.
Where [8] appears, read: first experiment, hyperlipidic diet + product 0,050g/kg daily.
Setting [9] is: second experiment, hyperlipidic diet + product 0,025g/kg daily.
Where [10] appears, read: third experiment, hyperlipidic diet + product "010g/kg" daily.
Where [11] appears, read: second experiment, hyperlipidic diet + product 0,1g/kg daily.
Where [12] appears, read: third experiment, hyperlipidic diet + product 0,1g/kg daily.

Counter-ions that a name gives are not always drawn.

In the case of `CC(CO)SCCCCCCCCCCSC(C)CO` (racemic) [CRL 40 122, (±)-2,15-Dimethyl-3,14-dithia-1,16-hexadecanediol], the decrease in cholesterol in series [1] is 23%. Also, in series [1], the “decrease in total lipids” value came to 31%. In series [2], the “appearance of activity (onset)” value was “after the third day of treatment”. Moreover, the product activity in series [2] (dose of 10 mg/kg) was about 20%; in series [2] (dose of 20 mg/kg), about 30%; in series [2] (dose of 50 mg/kg), about 60%. Besides, the “toxicity (in words)” value in the series on mice (acute oral, mice and rats) is “not toxic”. Besides, the mortality entry with mice (oral, mice, up to a dose of 5 g/kg) is recorded as “no mortality”; with rats it was “no mortality”. Further, the “use in human therapeutics (in words)” value in series [3] (capsules dosed at 100 mg and at 200 mg) is “used with success”. Moreover, the hypercholesterolaemia entry in series [3] (setting [6]) is given as “decrease after several days of treatment”. Further, the hyperlipaemia entry in series [3] (setting [6]) was “decrease after several days of treatment”. The solubility in water entry in series [4] is given as “insoluble”.
On to `CC(C)(Oc1ccc(Cl)cc1)C(=O)O` [Atherolip, aluminium salt of 2-(p-chlorophenoxy)-2-methylpropionic acid], for which, in series [5] (setting [7]), the “Total Cholesterol” value turned out to be 2.08 g/L; the “Total Lipids” value is 6.8 g/L; the “Burstein Test, % inhibition” value is 67%; the “Total Cholesterol, % inhibition” value came to 59%. In series [5] (setting [7]), the “Total Lipids, % inhibition” value is 49%.
`CC(C)(CO)SCCCCCCCCCCSC(C)(C)CO` [CRL 40 055, 2,2,15,15-Tetramethyl-3,14-dithia-1,16-hexadecanediol]: in series [5] (setting [8]), the “Burstein Test” value stood at 64; the “Total Cholesterol” value turned out to be 2.29 g/L; the “Total Lipids” value stood at 7.45 g/L; the “Burstein Test, % inhibition” value came to 58%. Also, in series [5] (setting [8]), the “Total Cholesterol, % inhibition” value came out at 51% and the “Total Lipids, % inhibition” value turned out to be 41%. In series [5] (setting [9]), the “Burstein Test” value is on record as 82; the “Total Cholesterol” value was 2.43 g/L; the “Total Lipids” value amounted to 8.06 g/L; the “Burstein Test, % inhibition” value is reported as 30%. In series [5] (setting [9]), the “Total Cholesterol, % inhibition” value amounted to 53% and the “Total Lipids, % inhibition” value was 37%. Further, in series [5] (setting [10]), the “Total Cholesterol” value stood at 3.81 g/L; the “Total Lipids” value was found to be 11.3 g/L; the “Burstein Test, % inhibition” value came out at 0%; the “Total Cholesterol, % inhibition” value was 0%. In addition, the “Total Lipids, % inhibition” value in series [5] (setting [10]) turned out to be 0%. Also, the “activity (in words)” value in series [5] (dose of 0.010 g/kg) is recorded as “the activity appears to have completely disappeared”. In addition, in series [5] (dose of 0.025 g/kg vs reference products at 0.1 g/kg), the “activity as compared with the reference products (in words)” value is on record as “substantially constant activity as compared with the reference products”. In series [4], the solubility in water result is “insoluble”.
Take `OCCSCCCCCCCCSCCO` [CRL 40 077, 1,8-Bis(2-hydroxyethyl-thio)-octane]: in series [4], the solubility in alcohol result was “soluble” and the solubility in water entry is “insoluble”.
Taken in the same sequence, the figures for `OCCSCCCCCCSCCO` [CRL 40 085, 1,6-Bis(2-hydroxyethyl-thio)-hexane] were “soluble” and “insoluble”.
`OCCSCCCCCCCCCSCCO` [CRL 40 116, 1,9Bis(2-hydroxyethylthio)-nonane]: in series [4], the solubility in alcohol entry was “soluble” and the solubility in water entry is “insoluble”.
Turning to `OCCSCCCCCCCSCCO` [CRL 40 120, 1,7-Bis(2-hydroxyethyl-thio)-heptane], in series [4], the solubility in alcohol entry is given as “soluble” and the solubility in water result is recorded as “insoluble”.
Consider `OCC(O)CSCCCCCCCCCCSCC(O)CO` (centres unmarked) [CRL 40 155, 1,10-Bis(2,3-dihydroxypropyl-thio)decan], for which, in series [4], the solubility in water entry is recorded as “insoluble”.
Turning to `OCCC(CO)SCCCCCCCCCCSC(CO)CCO` (centres unmarked) [CRL 40 176, 1,18-Dihydroxy-3,16-di(hydroxymethylene)-4,15-dithia-octadecane], the solubility in water result in series [4] is on record as “insoluble”.
The same measure, in the same setting: the value for `CC(CO)SCCCCCCCCCSC(C)CO` (centres unmarked) [CRL 40 193, 2,14-Dimethyl-3,13-dithia-1,15-pentadecanediol] was “insoluble”; that for `OCCSCCCCCCCCCCCSCCO` [CRL 40 194, 1,11-Bis-(2-hydroxyethyl-thio)-undecane] was “insoluble”.
For the compound `OCCSCCCCCCCCCCSCCO` [LL 1558, 1,10-bis(2-hydroxyethyl-thio)decane], in series [5] (setting [11]), the “Burstein Test” value stood at 38; the “Total Cholesterol” value came to 1.33 g/L; the “Total Lipids” value is 5.1 g/L; the “Burstein Test, % inhibition” value is 87%. Moreover, in series [5] (setting [11]), the “Total Cholesterol, % inhibition” value is 85% and the “Total Lipids, % inhibition” value is given as 82%. Also, in series [5] (setting [12]), the “Burstein Test” value is recorded as 37; the “Total Cholesterol” value came out at 1.33 g/L; the “Total Lipids” value is 4.5 g/L; the “Burstein Test, % inhibition” value is on record as 85%. In series [5] (setting [12]), the “Total Cholesterol, % inhibition” value is recorded as 70% and the “Total Lipids, % inhibition” value is on record as 77%.
With `CCOC(=O)C(C)(C)Oc1ccc(Cl)cc1` [Lipavlon, ethyl-2-(p-chlorophenoxy)-2-methylpropionate], in series [5] (setting [7]), the “Total Cholesterol” value came to 2.47 g/L; the “Total Lipids” value worked out at 7.75 g/L; the “Burstein Test, % inhibition” value turned out to be 49%; the “Total Cholesterol, % inhibition” value is 46%. Further, the “Total Lipids, % inhibition” value in series [5] (setting [7]) is given as 37%. In addition, in series [5] (setting [11]), the “Total Cholesterol” value was found to be 3 g/L; the “Total Lipids” value was 9.2 g/L; the “Burstein Test, % inhibition” value was found to be 27%; the “Total Cholesterol, % inhibition” value came to 36%. Besides, in series [5] (setting [11]), the “Total Lipids, % inhibition” value was found to be 20%. Also, in series [5] (setting [12]), the “Total Cholesterol” value was 1.58 g/L; the “Total Lipids” value is 7.3 g/L; the “Burstein Test, % inhibition” value came to 25%; the “Total Cholesterol, % inhibition” value worked out at 60%. The “Total Lipids, % inhibition” value in series [5] (setting [12]) is 22%.
